ChEMBL document CHEMBL4689842, “EUbOPEN Chemogenomics Library wave 1” (2021)

Assays:
Type in all cases: toxicity, cell-based
U2OS = experiment: Incucyte cell viability with U2OS; conditions: human, 10 µM, compound concentration 10 uM
HEK-293T = experiment: Incucyte cell viability with HEK293T; conditions: human, 10 µM, compound concentration 10 uM
Fibroblast = experiment: Incucyte cell viability with human fibroblast; conditions: 10 µM, compound concentration 10 uM
[1] = 0 h, replicate number 1, timepoint 0 hours
[2] = 6 h, replicate number 1, timepoint 6 hours
[3] = 12 h, replicate number 1, timepoint 12 hours
[4] = 12 h, replicate number 2, timepoint 12 hours
[5] = 18 h, replicate number 1, timepoint 18 hours
[6] = 24 h, replicate number 1, timepoint 24 hours
[7] = 0 h, replicate number 2, timepoint 0 hours
[8] = 6 h, replicate number 2, timepoint 6 hours
[9] = 18 h, replicate number 2, timepoint 18 hours
[10] = 24 h, replicate number 2, timepoint 24 hours
Also: filed as whole numbers so only -1 and 0 and 1 occur.

Compound | Growth Rate (U2OS; [1]) | Growth Rate (U2OS; [2]) | Growth Rate (U2OS; [3]) | Growth Rate (U2OS; [4]) | Growth Rate (U2OS; [5]) | Growth Rate (U2OS; [6]) | Growth Rate (HEK-293T; [7]) | Growth Rate (HEK-293T; [2]) | Growth Rate (HEK-293T; [3]) | Growth Rate (HEK-293T; [5]) | Growth Rate (HEK-293T; [6]) | Growth Rate (Fibroblast; [1]) | Growth Rate (Fibroblast; [2]) | Growth Rate (Fibroblast; [3]) | Growth Rate (Fibroblast; [5]) | Growth Rate (Fibroblast; [6]) | Growth Rate (U2OS; [8]) | Growth Rate (HEK-293T; [1]) | Growth Rate (HEK-293T; [8]) | Growth Rate (Fibroblast; [10]) | further results
CS(=O)(=O)NC[C@H]1CC[C@H](Nc2nc3c(s2)CCSc2ccccc2-3)CC1 | 0 | 0 | 0 | 1 | 0 | 1 | 0 | 0 | 0 | 0 | 0 | 0 | 0 | 1 | 1 | 0 | – | – | – | – | –
C=C1/C(=C\C=C2/CCC[C@]3(C)[C@@H]([C@H](C)/C=C/C=C/C(O)(CC)CC)CC[C@@H]23)C[C@@H](O)C[C@@H]1O [SEOCALCITOL] | – | – | 1 | – | 1 | 1 | – | 1 | 0 | 0 | 0 | 0 | – | – | – | 1 | 0 | 0 | 0 | – | Growth Rate (U2OS; [7]): 1; Growth Rate (U2OS; [9]): 0; Growth Rate (U2OS; [10]): 0; Growth Rate (Fibroblast; [8]): 0; Growth Rate (Fibroblast; [4]): 0; Growth Rate (Fibroblast; [9]): 1
CSc1ccc(C(=O)N[C@@H]2CCCC[C@@H]2NC(=O)CNC(=O)c2cc(C(F)(F)F)ccc2NC(=O)NC(C)C)cc1 | 0 | – | 1 | 0 | 0 | 0 | 0 | 0 | 0 | 0 | 0 | 0 | 1 | 1 | 1 | 0 | 0 | 1 | 1 | 1 | Growth Rate (U2OS; [9]): 1; Growth Rate (U2OS; [10]): 1
COc1cc2c(cc1OCCCN1CCCC1)N=C(N)C21CCC1 | 0 | 1 | 1 | – | 1 | 1 | – | – | – | – | – | 0 | – | – | 1 | 1 | – | 0 | – | – | Growth Rate (Fibroblast; [4]): 0
COc1cccc(OC)c1-c1cc(C(=O)NC2(C(=O)O)C3CC4CC(C3)CC2C4)nn1-c1ccc(C(=O)N(C)CCCN(C)C)cc1C(C)C (configuration not stated) | – | – | 1 | 0 | 0 | 0 | 0 | 0 | 0 | 1 | 1 | 0 | 0 | 0 | 0 | 0 | 0 | 1 | 1 | 1 | Growth Rate (U2OS; [7]): 0; Growth Rate (U2OS; [10]): 1; Growth Rate (HEK-293T; [4]): 1; Growth Rate (HEK-293T; [9]): 0; Growth Rate (Fibroblast; [9]): 1
Br.Br.N=C(N)SCCc1c[nH]cn1 | 0 | 0 | 1 | 0 | 0 | 0 | 0 | 1 | 1 | 1 | 1 | 0 | 0 | 0 | 1 | 1 | – | 1 | – | 0 | Growth Rate (U2OS; [9]): 1; Growth Rate (HEK-293T; [9]): 0; Growth Rate (HEK-293T; [10]): 0; Growth Rate (Fibroblast; [9]): 0
O=C(/C=C/N1C[C@H]2C[C@@H]1CN2c1ccccn1)c1ccccc1O | 0 | 0 | 1 | 0 | 0 | 0 | 1 | – | – | – | – | – | 1 | 1 | 1 | 1 | – | 0 | – | – | Growth Rate (Fibroblast; [7]): 0
C[C@H]1CC(=O)Nc2cc(C(=O)NCCC3CC3)ccc2N1C(=O)N1CC2CC2C1 (some centres not stated) | 1 | 0 | 1 | – | 1 | 1 | 1 | – | – | 1 | 0 | 0 | 0 | 1 | 0 | 1 | – | 0 | 1 | 0 | Growth Rate (HEK-293T; [4]): 0; Growth Rate (HEK-293T; [10]): 1; Growth Rate (Fibroblast; [4]): 0
